# ChEMBL document CHEMBL4732239, “Novel molecule combinations and corresponding hybrids targeting artemisinin-resistant Plasmodium falciparum parasites” (Bioorg Med Chem Lett, 2021)
# How the values were obtained:
# [1] = Selective index, ratio of CC50 for African green monkey Vero cells to IC50 for plasmodium falciparum
# Plasmodium falciparum [2] = experiment: Antimalarial activity against ring stage artemisinin-resistant Plasmodium falciparum F32-ART5 assessed as time taken for recrudescence by measuring parasitemia at 7 uM after 48 hrs; format: functional
# Plasmodium falciparum [3] = experiment: Antimalarial activity against Plasmodium falciparum assessed as difference of time taken for recrudescence Plasmodium falciparum […] between ring stage artemisinin-sensitive Plasmodium falciparum F32-TEM measured at 7 uM after 48 hrs; format: functional
# [4] = Cytotoxicity against African green monkey Vero cells assessed as inhibition of cell proliferation; format: cell-based; settings: chlorocebus sabaeus
# Plasmodium falciparum [5] = experiment: Antimalarial activity against ring stage artemisinin-sensitive Plasmodium falciparum F32-TEM assessed as time taken for recrudescence by measuring parasitemia at 7 uM after 48 hrs; format: functional
# Plasmodium falciparum [6] = experiment: Antimalarial activity against artemisinin-sensitive Plasmodium falciparum F32-TEM by SYBR green dye based fluorescence assay; format: functional, organism-based
# Plasmodium falciparum [7] = experiment: Antimalarial activity against Plasmodium falciparum assessed as difference of time taken for recrudescence Plasmodium falciparum F32-ART5 between ring stage artemisinin-sensitive Plasmodium falciparum F32-TEM measured at 1 uM after 48 hrs
# Plasmodium falciparum [8] = experiment: Antimalarial activity against ring stage artemisinin-sensitive Plasmodium falciparum F32-TEM assessed as time taken for recrudescence by measuring parasitemia at 1 uM after 48 hrs; format: functional
# Plasmodium falciparum [9] = experiment: Antimalarial activity against ring stage artemisinin-resistant Plasmodium falciparum F32-ART5 assessed as time taken for recrudescence by measuring parasitemia pretreated with dihydroartemisinin for 6 hrs followed by treated at 7 uM for 48 hrs by Quiescent-stage Survival Assay; format: functional
# Plasmodium falciparum [10] = experiment: Antimalarial activity against ring stage artemisinin-resistant Plasmodium falciparum F32-ART5 assessed as time taken for recrudescence by measuring parasitemia at 20 uM after 48 hrs; format: functional
# Plasmodium falciparum [11] = experiment: Antimalarial activity against Plasmodium falciparum assessed as difference of time taken for recrudescence Plasmodium falciparum […] between ring stage artemisinin-sensitive Plasmodium falciparum F32-TEM measured at 20 uM after 48 hrs; format: functional
# Plasmodium falciparum [12] = experiment: Antimalarial activity against ring stage artemisinin-sensitive Plasmodium falciparum F32-TEM assessed as time taken for recrudescence by measuring parasitemia at 20 uM after 48 hrs; format: functional
# Plasmodium falciparum [13] = experiment: Antimalarial activity against ring stage artemisinin-sensitive Plasmodium falciparum F32-TEM assessed as time taken for recrudescence by measuring parasitemia at 18 uM after 48 hrs; format: functional
# Plasmodium falciparum [14] = experiment: Antimalarial activity against Plasmodium falciparum assessed as difference of time taken for recrudescence Plasmodium falciparum […] between ring stage artemisinin-sensitive Plasmodium falciparum F32-TEM measured at 18 uM after 48 hrs; format: functional
# Plasmodium falciparum [15] = experiment: Antimalarial activity against ring stage artemisinin-resistant Plasmodium falciparum F32-ART5 assessed as time taken for recrudescence by measuring parasitemia at 18 uM after 48 hrs; format: functional
# Plasmodium falciparum [16] = experiment: Antimalarial activity against ring stage artemisinin-resistant Plasmodium falciparum F32-ART5 assessed as time taken for recrudescence by measuring parasitemia at 1 uM after 48 hrs; format: functional
# Plasmodium falciparum [17] = experiment: Antimalarial activity against ring stage artemisinin-resistant Plasmodium falciparum F32-ART5 assessed as time taken for recrudescence by measuring parasitemia pretreated with dihydroartemisinin for 6 hrs followed by treated at 200 nM for 48 hrs by Quiescent-stage Survival Assay; format: functional
SMILES,Ratio CC50/IC50 [1],Time (Plasmodium falciparum [2]) [days],Time (Plasmodium falciparum [3]),CC50 [4] [nM],Time (Plasmodium falciparum [5]) [days],IC50 (Plasmodium falciparum [6]) [nM],Time (Plasmodium falciparum [7]) [days],Time (Plasmodium falciparum [8]) [days],Time (Plasmodium falciparum [9]) [days],other results
Cc1[nH]c(C)c(-c2ccc(Oc3ccc(OC(F)(F)F)cc3)cc2)c(=O)c1Cl,190,2,3 days,8000,8,42,,,,
Cl.O=C(CCCC(=O)O[C@H](c1cc(C(F)(F)F)nc2c(C(F)(F)F)cccc12)[C@@H]1CCCCN1)OC1=C([C@H]2CC[C@H](c3ccc(Cl)cc3)CC2)C(=O)c2ccccc2C1=O,4545,,,5000,,1.1,0,14,,
O=C(CCCCCCC(=O)Oc1cc(Cl)ccc1Oc1ccc(Cl)cc1Cl)OC1=C([C@H]2CC[C@H](c3ccc(Cl)cc3)CC2)C(=O)c2ccccc2C1=O,10000,9,4 days,6000,12,0.6,,,10,
Cc1nc(C)c(-c2ccc(Oc3ccc(OC(F)(F)F)cc3)cc2)c(OC(=O)CCCCCCC(=O)Oc2cc(Cl)ccc2Oc2ccc(Cl)cc2Cl)c1Cl,>710,3,0.6 days,> 120000,4,169,,,,Time (Plasmodium falciparum [10]): 2 days; Time (Plasmodium falciparum [11]): 1 days; Time (Plasmodium falciparum [12]): 3 days
Cl.O=C(CCC(=O)O[C@H](c1cc(C(F)(F)F)nc2c(C(F)(F)F)cccc12)[C@@H]1CCCCN1)OC1=C([C@H]2CC[C@H](c3ccc(Cl)cc3)CC2)C(=O)c2ccccc2C1=O,6660,,,4000,,0.6,0,14,,
"O[C@@H](c1cc(C(F)(F)F)nc2c(C(F)(F)F)cccc12)[C@H]1CCCCN1 [(S,R)-MEFLOQUINE]",241,,,21000,,87,,>30,,
C[C@@H]1CC[C@H]2[C@@H](C)C(=O)O[C@@H]3O[C@@]4(C)CC[C@@H]1[C@]32OO4 [ARTEMISININ],,,,,,18,,,,Time (Plasmodium falciparum [13]): 22 days; Time (Plasmodium falciparum [14]): 12.5 days; Time (Plasmodium falciparum [15]): 9 days
O=C1C(O)=C([C@H]2CC[C@H](c3ccc(Cl)cc3)CC2)C(=O)c2ccccc21 [ATOVAQUONE],257,21,<=1 day,500,23,2.1,3,14,18,Time (Plasmodium falciparum [16]): 11 days
CCN(CC)CCCC(C)Nc1ccnc2cc(Cl)ccc12 (stereo unspecified) [CHLOROQUINE],,,,,,,,,,Time (Plasmodium falciparum [17]): 8 days
Oc1cc(Cl)ccc1Oc1ccc(Cl)cc1Cl [TRICLOSAN],5,5,,25000,6,,,,7,
